Molecules are shown by their SMILES.

The source of these data is patent US8361962B2, “Tricyclic inhibitors of JAK” (Roche Palo Alto LLC, priority 2009, dated 2013).

For the experiment, the target named is T1, h-jak3 (JAK3: Recombinant human kinase domain) (Homo sapiens, UniProt P52333).
T1 construct: JAK3: Recombinant human kinase domain from Millipore (Cat # 14-629); purchased Millipore 14-629
T1 sequence (P52333 822-1111 limits assumed): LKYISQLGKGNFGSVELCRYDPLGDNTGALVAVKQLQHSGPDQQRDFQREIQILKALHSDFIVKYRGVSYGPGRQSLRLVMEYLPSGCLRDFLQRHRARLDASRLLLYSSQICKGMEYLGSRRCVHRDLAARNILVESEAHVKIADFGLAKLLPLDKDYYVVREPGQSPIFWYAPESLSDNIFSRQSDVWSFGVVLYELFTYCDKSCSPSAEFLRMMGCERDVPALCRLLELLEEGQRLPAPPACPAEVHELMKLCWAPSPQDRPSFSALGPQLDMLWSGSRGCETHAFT
Nature of the experiment: Determination of IC50 of Janus Kinase (JAK) inhibition, radioactive end-point 33P-ATP assay, JAK3. Type of experiment: biochemical. The source says: Determination of IC50 of Janus Kinase (JAK) Inhibition:
Enzymes and peptide substrate used are described below: • JAK1: Recombinant human kinase domain from Invitrogen (Cat # PV4774) • JAK3: Recombinant human kinase domain from Millipore (Cat # 14-629) • JAK2: Recombinant human kinase domain from Millipore (Cat # 14-640) • Substrate: N-terminally biotinylated 14-mer peptide derived from activation loop of JAK1 with sequence of the peptide substrate: Biotin-KAIETDKEYYTVKD (SEQ ID NO: 1)
Assay conditions used are described below: • Assay Buffer: JAK Kinase Buffer: 50 mM Hepes [pH 7.2], 10 mM MgCl2, 1 mM DTT, 1 mg/ml BSA. The assay is carried out in this buffer. • Assay Format: The kinase activity of all three JAK kinases is measured using a radioactive, end-point assay and with trace amounts of ^33P-ATP. The assays are carried out in 96-well polypropylene plates. Experimental Method:
All concentrations are final in the reaction mixture and all incubations are carried at room temperature. Assay steps are described below: • Compounds are serially diluted in 100% DMSO typically at a 10× starting concentration of 1 mM. Final concentration of DMSO in the reaction is 10%. • Compounds are preincubated with enzyme (0.5 nM JAK3, 1 nM JAK2, 5 nM JAK1) for 10 minutes. • Reactions are initiated by the addition of a cocktail of the two substrates (ATP and peptide premixed in the JAK Kinase Buffer). In the JAK2/JAK3 assays, ATP and the peptide are used at concentrations of 1.5 uM and 50 uM, respectively. JAK1 assay is carried out at an ATP concentration of 10 uM and a peptide concentration of 50 uM. The duration of the assay for JAK2 and JAK3 is 20 minutes. JAK1 assay is carried out for 40 minutes. With all three enzymes, reactions are terminated by the addition of 0.5M EDTA to a final concentration of 100 mM. • 25 ul of terminated reactions are transferred to 150 ul of a 7.5% (v/v) slurry of streptavidin-coated sepharose beads in MgCl2- and CaCl2-free 1× Phosphate Buffered Saline containing 50 mM of EDTA in 96-well, 1.2 um MultiScreen-BV filter plates. After a 30-minute incubation, the beads are washed under vacuum with the following buffers: • 3 to 4 washes with 200 ul of 2M NaCl. • 3 to 4 washes with 200 ul of 2M NaCl plus 1% (v/v) phosphoric acid. • 1 wash with water. • Washed plates are dried in a 60° C. oven for between 1 to 2 hours. • 70 ul of Microscint 20 scintillation fluid is added to each well of filter plates and after at least 30 minutes of incubation, radioactive counts are measured in a Perkin Elmer microplate scintillation counter.
One may read the IC50 as the concentration at which inhibition is half-maximal. In general, Ki refers to a measure of affinity in units of concentration, obtained from inhibition or displacement. For the compound `CCS(=O)(=O)N1CCC(C)[C@H](c2ccc3cnc4[nH]ccc4n23)C1` (stereo in doubt) [Compound I-5, 8-((3S,4S)-1-Ethanesulfonyl-4-methyl-piperidin-3-yl)-3H-3,4,8a-triaza-as-indacene], the IC50 was determined as 203 nM and the Ki worked out at 119 nM.

`c1cc2c(ncc3ccc(C4CCCCC4)n32)[nH]1` [Compound I-2, 8-Cyclohexyl-3H-3,4,8a-triaza-as-indacene]: the IC50 stood at 20.2 nM and the Ki is 10.4 nM.

For `CC1CCCCN1c1ccc2cnc3[nH]ccc3n12` (centres unmarked) [Compound I-3, 8-(2-Methyl-piperidin-1-yl)-3H-3,4,8a-triaza-as-indacene], the half-inhibitory concentration (IC50) worked out at 39.9 nM and the inhibition constant (Ki) came to 20.5 nM.

With `CCS(=O)(=O)N1CC[C@H](C)[C@H](c2ccc3cnc4[nH]ccc4n23)C1` [Compound I-4, 8-((3S,4S)-1-Ethanesulfonyl-4-methyl-piperidin-3-yl)-3H-3,4,8a-triaza-as-indacene], the Ki was 0.964 nM.

On to `C[C@H]1CCCC[C@H]1c1nnc2cnc3[nH]ccc3n12` [Compound I-6, 1-((1R,2S)-2-Methyl-cyclohexyl)-6H-2,3,5,6,8b-pentaaza-as-indacene], for which the IC50 stood at 69.3 nM and the Ki was determined as 35.5 nM.

In the case of `CCS(=O)(=O)N1CC[C@@H](C)[C@@H](c2nnc3cnc4[nH]ccc4n23)C1` [Compound I-7, 1-((3R,4R)-1-Ethanesulfonyl-4-methyl-piperidin-3-yl)-6H-2,3,5,6,8b-pentaaza-as-indacene], the IC50 came out at 231 nM and the Ki was found to be 103 nM.

For `c1cc2c(ncc3nnc(C4CCCCC4)n32)[nH]1` [Compound I-8, 1-Cyclohexyl-6H-2,3,5,6,8b-pentaaza-as-indacene], the IC50 came to 449 nM and the Ki was 225 nM.

Consider `C[C@H]1CCN(C(=O)CC#N)C[C@H]1c1nnc2cnc3[nH]ccc3n12` [Compound I-9, 3-[(3S,4S)-4-Methyl-3-(6H-2,3,5,6,8b-pentaaza-as-indacen-1-yl)-piperidin-1-yl]-3-oxo-propionitrile], for which the 50% inhibitory concentration (IC50) worked out at 25 nM and the inhibition constant (Ki) was 12.8 nM.

For `c1cc2c(ncc3cnc(C4CCCCC4)n32)[nH]1` [Compound I-10, 1-Cyclohexyl-6H-2,5,6,8b-tetraaza-as-indacene], the concentration for half-maximal inhibition (IC50) stood at 93 nM and the inhibition constant (Ki) came out at 47.7 nM.
